Laboratory results reported in PubChem BioAssay AID588735 (Vanderbilt Specialized Chemistry Center, 2011).

Biological target: Metabotropic glutamate receptor 5 (Rattus norvegicus) (UniProt P31424)
Assay: PubChem AID 588735
Settings: HEK293 rat mGluR5, calcium fluorescence, at 10 µM, stronger effect = higher value

Sequence of Metabotropic glutamate receptor 5 (Rattus norvegicus) (P31424 whole entry, looked up): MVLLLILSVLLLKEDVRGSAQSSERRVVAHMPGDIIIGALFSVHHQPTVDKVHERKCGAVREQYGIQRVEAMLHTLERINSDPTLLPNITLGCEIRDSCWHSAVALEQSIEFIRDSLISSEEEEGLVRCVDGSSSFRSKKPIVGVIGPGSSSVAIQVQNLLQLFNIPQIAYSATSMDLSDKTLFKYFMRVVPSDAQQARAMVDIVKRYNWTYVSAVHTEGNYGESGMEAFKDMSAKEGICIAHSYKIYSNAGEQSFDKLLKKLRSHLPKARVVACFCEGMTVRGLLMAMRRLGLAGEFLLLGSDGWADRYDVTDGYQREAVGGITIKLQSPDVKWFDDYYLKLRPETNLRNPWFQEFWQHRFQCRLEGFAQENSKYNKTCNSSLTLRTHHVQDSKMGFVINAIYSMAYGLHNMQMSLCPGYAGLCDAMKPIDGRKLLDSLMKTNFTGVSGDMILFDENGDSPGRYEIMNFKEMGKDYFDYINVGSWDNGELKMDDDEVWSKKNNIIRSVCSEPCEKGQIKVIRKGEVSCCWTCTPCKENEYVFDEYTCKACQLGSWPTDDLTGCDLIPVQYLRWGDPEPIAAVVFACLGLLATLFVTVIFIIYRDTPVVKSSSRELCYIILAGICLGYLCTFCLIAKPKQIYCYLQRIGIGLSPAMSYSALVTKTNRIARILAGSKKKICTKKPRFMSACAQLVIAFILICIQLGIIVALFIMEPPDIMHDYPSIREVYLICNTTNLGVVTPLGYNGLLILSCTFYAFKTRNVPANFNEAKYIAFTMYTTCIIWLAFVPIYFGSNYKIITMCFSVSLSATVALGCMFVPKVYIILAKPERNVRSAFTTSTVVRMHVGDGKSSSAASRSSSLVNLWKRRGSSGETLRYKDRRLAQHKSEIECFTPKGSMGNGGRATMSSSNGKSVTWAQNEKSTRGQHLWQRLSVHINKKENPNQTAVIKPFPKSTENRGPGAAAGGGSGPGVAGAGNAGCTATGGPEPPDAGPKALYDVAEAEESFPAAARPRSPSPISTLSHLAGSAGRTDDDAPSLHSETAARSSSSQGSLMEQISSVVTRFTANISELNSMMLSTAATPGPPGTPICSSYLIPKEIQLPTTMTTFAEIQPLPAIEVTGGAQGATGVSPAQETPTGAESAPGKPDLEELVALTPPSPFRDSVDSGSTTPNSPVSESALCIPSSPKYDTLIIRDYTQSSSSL

fold shift: 4.6 | Emax (glutamate fold shift, glutamate max response with compound): 62% | Emin (glutamate fold shift, glutamate min response (ago-PAM)): 45%
Structure (SMILES): C[C@@H](NC(=O)c1ccc(C#Cc2cccc(F)c2)cn1)C(C)(C)O
